Test results taken from patent publication US5075299A, “Cephalosporin compounds and antibacterial agents” (Meiji Seika Kaisha, Ltd., priority 1988, dated 1991).
Values after ≈ are worked out from the molar mass of the structure shown. Read-outs that look alike come from different tables or passages of the source.

Columns and labels:
Proteus rettgeli GN624 = test: antibacterial activity, agar dilution method; format: cell-based; details: read-out: Antibacterial Activity MIC
[1] = tested on: Serratia marcescens GN629; test: antibacterial activity, agar dilution method; format: cell-based
[2] = tested on: Staphylococcus aureus 606 E-25; test: antibacterial activity, agar dilution method; format: cell-based
Escherichia coli GN206 = test: antibacterial activity, agar dilution method; format: cell-based
mice = test: acute toxicity using mice; format: in vivo; details: dose of 2 g/kg by intravenous injection
Description: Acute toxicity of the compound of Example 2 was examined using mice.

[3] = tested on: Pseudomonas aeruginosa MB3833; test: antibacterial activity, agar dilution method; format: cell-based
[4] = tested on: Klebsiella pneumoniae GN118; test: antibacterial activity, agar dilution method; format: cell-based
[5] = tested on: Pseudomonas aeruginosa IAM-1007; test: antibacterial activity, agar dilution method; format: cell-based
[6] = tested on: Citrobacter froindii GN346; test: antibacterial activity, agar dilution method; format: cell-based
[7] = tested on: Escherichia coli W3630 RGN238; test: antibacterial activity, agar dilution method; format: cell-based; details: W3630RGN238, read-out: Antibacterial Activity MIC
[8] = Proteus rettgeli GN624, agar dilution method
[9] = Serratia marcescens GN629, agar dilution method, read-out: Antibacterial Activity MIC
[10] = 606E25, Staphylococcus aureus 606 E-25, agar dilution method, read-out: Antibacterial Activity MIC
[11] = Escherichia coli GN206, agar dilution method, read-out: Antibacterial Activity MIC
[12] = Pseudomonas aeruginosa MB3833, agar dilution method, read-out: Antibacterial Activity MIC
[13] = Klebsiella pneumoniae GN118, agar dilution method, read-out: Antibacterial Activity MIC
[14] = IAM1007, Pseudomonas aeruginosa IAM-1007, agar dilution method, read-out: Antibacterial Activity MIC
[15] = Citrobacter froindii GN346, agar dilution method, read-out: Antibacterial Activity MIC
[16] = Klebsiella pneumoniae, GN118, read-out: Antibacterial Activity MIC

`Cc1c(O)c(=O)cc(CO/N=C(\C(=O)NC2C(=O)N3C(C(=O)O)=C(CSc4cnns4)CSC23)c2csc(N)n2)n1O` (stereo not shown) [Example 2, 7-((Z)-2-(2-Aminothiazol-4-yl)-2-(6-methyl-1,5-dihydroxy-4-pyridon-2-ylmethoxyimino)acetamido)-3-(1,2,3-thiadiazol-5-yl-thiomethyl)-3-cephem-4-carboxylic acid] was tested, and the MIC (Proteus rettgeli GN624; [8]) was 0.1 µg/mL (≈ 0.153 µM), the MIC [1, 9] was 0.05 µg/mL (≈ 0.0766 µM) and the MIC [2, 10] was 12.5 µg/mL (≈ 19.2 µM). The MIC (Escherichia coli GN206; [11]) was 0.39 µg/mL (≈ 0.598 µM), the “Acute toxicity (death)” value (mice) was “no death was noted” and the MIC [3, 12] was < 0.025 µg/mL. For the same compound, the MIC [4, 13] was < 0.025 µg/mL, the MIC [5, 14] was < 0.025 µg/mL and the MIC [6, 15] was 6.25 µg/mL (≈ 9.58 µM). The MIC [7] was < 0.025 µg/mL.
`CO/N=C(\C(=O)N[C@@H]1C(=O)N2C(C(=O)O)=C(COC(C)=O)CS[C@H]12)c1csc(N)n1` [CTX, reference compound] showed an MIC (Proteus rettgeli GN624; [8]) of 1.56 µg/mL (≈ 3.43 µM), an MIC [1, 9] of 0.39 µg/mL (≈ 0.856 µM) and an MIC [2, 10] of 1.56 µg/mL (≈ 3.43 µM). It also gave an MIC (Escherichia coli GN206; [11]) of 1.56 µg/mL (≈ 3.43 µM), an MIC [3, 12] of 12.5 µg/mL (≈ 27.4 µM) and an MIC [4, 13] of 0.05 µg/mL (≈ 0.11 µM). The MIC [5, 14] was 12.5 µg/mL (≈ 27.4 µM), the MIC [6, 15] was 12.5 µg/mL (≈ 27.4 µM) and the MIC [7] was 0.2 µg/mL (≈ 0.439 µM).
In the case of `CC(C)(O/N=C(\C(=O)N[C@@H]1C(=O)N2C(C(=O)[O-])=C(C[n+]3ccccc3)CS[C@H]12)c1csc(N)n1)C(=O)O` [CAZ, reference compound], the MIC (Proteus rettgeli GN624) is reported as 1.56 µg/mL (≈ 2.85 µM), the MIC ([1]; Serratia marcescens, GN629, read-out: Antibacterial Activity MIC) is reported as 0.39 µg/mL (≈ 0.714 µM) and the MIC ([2]; Staphylococcus aureus, 606E25, read-out: Antibacterial Activity MIC) is reported as 12.5 µg/mL (≈ 22.9 µM). The MIC (Escherichia coli GN206; Escherichia coli, GN206, read-out: Antibacterial Activity MIC) was 1.56 µg/mL (≈ 2.85 µM), the MIC ([3]; Pseudomonas aeruginosa, MB3833, read-out: Antibacterial Activity MIC) was 0.78 µg/mL (≈ 1.43 µM) and the MIC [4, 16] was 0.78 µg/mL (≈ 1.43 µM). For the same compound, the MIC ([5]; Pseudomonas aeruginosa, IAM1007, read-out: Antibacterial Activity MIC) was 1.56 µg/mL (≈ 2.85 µM), the MIC ([6]; Citrobacter, GN346, read-out: Antibacterial Activity MIC) was 50 µg/mL (≈ 91.5 µM) and the MIC [7] was 0.39 µg/mL (≈ 0.714 µM).
With `Cc1cc(=O)c(O)c(CO/N=C(\C(=O)NC2C(=O)N3C(C(=O)O)=C(CSc4cnns4)CSC23)c2csc(N)n2)n1O` (stereo not shown) [Example 6] the MIC (Proteus rettgeli GN624; [8]) was 0.1 µg/mL (≈ 0.153 µM), the MIC [1, 9] was 0.2 µg/mL (≈ 0.306 µM) and the MIC [2, 10] was 1.56 µg/mL (≈ 2.39 µM). The MIC (Escherichia coli GN206; [11]) was 0.78 µg/mL (≈ 1.2 µM), the MIC [3, 12] was 0.39 µg/mL (≈ 0.598 µM) and the MIC [4, 16] was < 0.025 µg/mL. It also gave an MIC [5, 14] of 0.39 µg/mL (≈ 0.598 µM), an MIC [6, 15] of 6.25 µg/mL (≈ 9.58 µM) and an MIC [7] of 0.05 µg/mL (≈ 0.0766 µM).
Compound `Cc1c(O)c(=O)cc(CO/N=C(\C(=O)NC2C(=O)N3C(C(=O)O)=C(CSc4nnnn4C)CSC23)c2csc(N)n2)n1O` (stereo not shown) [Example 4, 7-((Z)-2-(2-Aminothiazol-4-yl)-2-(6-methyl-1,5-dihydroxy-4-pyridon-2-ylmethoxyimino)acetamido)-3-(1-methyl-1H-tetrazol-5-ylthiomethyl)-3-cephem-4-carboxylic acid] has an MIC (Proteus rettgeli GN624; [8]) of 0.05 µg/mL (≈ 0.0768 µM), an MIC [1, 9] of 0.05 µg/mL (≈ 0.0768 µM) and an MIC [2, 10] of 25 µg/mL (≈ 38.4 µM). The MIC (Escherichia coli GN206; [11]) was 0.1 µg/mL (≈ 0.154 µM), the MIC [3, 12] was < 0.025 µg/mL and the MIC [4, 13] was < 0.025 µg/mL. For the same compound, the MIC [5, 14] was < 0.025 µg/mL, the MIC [6, 15] was 6.25 µg/mL (≈ 9.61 µM) and the MIC [7] was < 0.025 µg/mL.
